This note sets out measurements from publication PMC9333195, “Discovery of 2-Phenylquinoline-4-Carboxylic Acid Derivatives as Novel Histone Deacetylase Inhibitors” (Frontiers in Chemistry, 2022).

By melting point is commonly meant the temperature, or range, at which the solid turns liquid.

Series [1] has as its system Hela nucleus extract containing a mixture of HDAC isoforms. In words: In vitro HDAC inhibitory assay, HeLa cell nuclear extract screening at 2 µM. Format: biochemical. The conditions noted are these: 2.0 µM compound, mean of three experiments. Here is the method:
The HDAC enzyme inhibitory activities of synthesized compounds were evaluated against Hela nucleus extract containing a mixture of HDAC isoforms. Percentage inhibitory rate (PIR) was calculated to determine the activity of tested compounds (Table 1).
All HDAC enzymes were purchased from BPS Bioscience. […] The reaction was terminated by adding 100 μl of imaging agent containing trypsin and trichostatin A (TSA). After standing for 20 min, the fluorescence intensity was measured at the excitation and emission wavelengths of 360 and 460 nm with a microplate reader. The inhibition rate was calculated from the fluorescence intensity readings of the test wells relative to the control wells, and the IC50 curve and value were determined by GraphPad Prism 6.0 software.

In another series the test system is K562 cells. The series is described as follows: CCK-8 antiproliferative assay, K562. The conditions noted are these: for K562 percentage inhibitory rate: 2.0 µM compound, K562 cells, CCK-8, mean of three experiments; for inhibition at 2 µM: Homo sapiens, K562, read-out: K562 percentage inhibitory rate. In general terms: Tetrazolium dyes change colour on reduction, which living cells bring about.

Description for K562 cells: The proliferation of cancer cells was tested by CCK-8 assay. Briefly, cells were seeded in a 96-well plate with about 5 × 10^3 cells in each well. In the K652 cell screening, cells were treated with 2.0 μM of tested compounds. […] The light absorbance at 450 nm was measured by using an Opsys microplate reader (Dynex Technologies, Chantilly, VA, United States).

As to “3,5-Difluoro-N-(4-(4-(4-(4-(Hydroxycarbamoyl)Phenyl)Piperazine-1-Carbonyl)Quinolin-2-yl)Phenyl)Benzamide [Compound D25]”, the “HDACs percentage inhibitory rate (PIR)” value in series [1] came to 54.74 ± 1.41%. The “K562 percentage inhibitory rate” value in the series with K562 cells was determined as 37.64 ± 0.13%.
The like results for “4-(4-(2-(4-Fluoro-3-Methylphenyl)Quinoline-4-Carbonyl)Piperazin-1-yl)-N-Hydroxybenzamide [Compound D17]” were, in that order, 47.41 ± 1.03% and 41.91 ± 0.13%.
`O=C(NO)c1ccc(N2CCN(C(=O)c3cc(-c4ccccc4)nc4ccccc34)CC2)cc1` [Compound D1, N-Hydroxy-4-(4-(2-Phenylquinoline-4-Carbonyl)Piperazin-1-yl)Benzamide] returned a melting point of 213.8 to 214.8 °C. For the same compound, in series [1], the “HDACs percentage inhibitory rate (PIR)” value is listed as 57.96 ± 0.43%. The inhibition at 2 µM in the series on K562 cells is 46.58 ± 0.35%.
`O=C(NO)c1ccc(N2CCN(C(=O)c3cc(-c4ccc(Br)cc4)nc4ccccc34)CC2)cc1` [Compound D2, 4-(4-(2-(4-Bromophenyl)Quinoline-4-Carbonyl)Piperazin-1-yl)-N-Hydroxybenzamide] had a melting point of 231.7 to 232.8 °C. Besides, the “HDACs percentage inhibitory rate (PIR)” value in series [1] amounted to 59.50 ± 0.35%. Also, in the series with K562 cells, the inhibition at 2 µM came to 48.8 ± 1.32%.
The matching figures for `O=C(NO)c1ccc(N2CCN(C(=O)c3cc(-c4ccc(Cl)cc4)nc4ccccc34)CC2)cc1` [Compound D3, 4-(4-(2-(4-Chlorophenyl)Quinoline-4-Carbonyl)Piperazin-1-yl)-N-Hydroxybenzamide]: 228.1 to 229.2 °C, 49.43 ± 3.73% and 46.4 ± 0.53%.
The like results for `O=C(NO)c1ccc(N2CCN(C(=O)c3cc(-c4ccc(F)cc4)nc4ccccc34)CC2)cc1` [Compound D4, 4-(4-(2-(4-Fluorophenyl)Quinoline-4-Carbonyl)Piperazin-1-yl)-N-Hydroxybenzamide] were, in that order, 163.5 to 164.8 °C, 47.79 ± 1.34% and 32.43 ± 0.2%.
The matching figures for `CSc1ccc(-c2cc(C(=O)N3CCN(c4ccc(C(=O)NO)cc4)CC3)c3ccccc3n2)cc1` [Compound D5, N-Hydroxy-4-(4-(2-(4-(Methylthio)Phenyl)Quinoline-4-Carbonyl)Piperazin-1-yl)Benzamide]: 177.2 to 179.6 °C, 50.93 ± 0.93% and 47.4 ± 1.11%.
`COc1ccc(-c2cc(C(=O)N3CCN(c4ccc(C(=O)NO)cc4)CC3)c3ccccc3n2)cc1` [Compound D6, N-Hydroxy-4-(4-(2-(4-Methoxyphenyl)Quinoline-4-Carbonyl)Piperazin-1-yl)Benzamide] yielded a melting point of 184.3 to 186.8 °C. Also, in series [1], the “HDACs percentage inhibitory rate (PIR)” value came out at 52.31 ± 3.09%. The inhibition at 2 µM with K562 cells amounted to 51.55 ± 0.25%.
The like results for `O=C(NO)c1ccc(N2CCN(C(=O)c3cc(-c4ccc(C(F)(F)F)cc4)nc4ccccc34)CC2)cc1` [Compound D7, N-Hydroxy-4-(4-(2-(4-(Trifluoromethyl)Phenyl)Quinoline-4-Carbonyl)Piperazin-1-yl)Benzamide] were, in that order, 212.7 to 213.9 °C, 52.60 ± 2.37% and 40.3 ± 1.2%.
For `O=C(NO)c1ccc(N2CCN(C(=O)c3cc(-c4cccc(Cl)c4)nc4ccccc34)CC2)cc1` [Compound D8, 4-(4-(2-(3-Chlorophenyl)Quinoline-4-Carbonyl)Piperazin-1-yl)-N-Hydroxybenzamide], the melting point fell in the range of 207.1 to 208.9 °C. In addition, the “HDACs percentage inhibitory rate (PIR)” value in series [1] was 51.81 ± 4.07%. Besides, in the series with K562 cells, the inhibition at 2 µM came to 42.9 ± 1.02%.
The matching figures for `Cc1cccc(-c2cc(C(=O)N3CCN(c4ccc(C(=O)NO)cc4)CC3)c3ccccc3n2)c1` [Compound D9, N-Hydroxy-4-(4-(2-(m-Tolyl)Quinoline-4-Carbonyl)Piperazin-1-yl)Benzamide]: 199.2 to 199.7 °C, 49.33 ± 0.82% and 45.81 ± 0.33%.
The like results for `O=C(NO)c1ccc(N2CCN(C(=O)c3cc(-c4ccccc4F)nc4ccccc34)CC2)cc1` [Compound D10, 4-(4-(2-(2-Fluorophenyl)Quinoline-4-Carbonyl)Piperazin-1-yl)-N-Hydroxybenzamide] were, in that order, 172.5 to 173.3 °C, 58.52 ± 0.64% and 40.9 ± 1.22%.
`COc1cccc(-c2cc(C(=O)N3CCN(c4ccc(C(=O)NO)cc4)CC3)c3ccccc3n2)c1` [Compound D11, N-Hydroxy-4-(4-(2-(3-Methoxyphenyl)Quinoline-4-Carbonyl)Piperazin-1-yl)Benzamide]: the melting point fell in the range of 179.8 to 180.9 °C. Also, the “HDACs percentage inhibitory rate (PIR)” value in series [1] is listed as 63.49 ± 4.61%. Further, the inhibition at 2 µM with K562 cells was found to be 46.09 ± 0.43%.
The like results for `O=C(NO)c1ccc(N2CCN(C(=O)c3cc(-c4cc(F)cc(F)c4)nc4ccccc34)CC2)cc1` [Compound D12, 4-(4-(2-(3,5-Difluorophenyl)Quinoline-4-Carbonyl)Piperazin-1-yl)-N-Hydroxybenzamide] were, in that order, 221.8 to 222 °C, 74.91 ± 0.35% and 51.8 ± 1.35%.
The like results for `COc1ccccc1-c1cc(C(=O)N2CCN(c3ccc(C(=O)NO)cc3)CC2)c2ccccc2n1` [Compound D13, N-Hydroxy-4-(4-(2-(2-Methoxyphenyl)Quinoline-4-Carbonyl)Piperazin-1-yl)Benzamide] were, in that order, 224 to 224.9 °C, 54.24 ± 0.18% and 43.81 ± 0.26%.
The matching figures for `O=C(NO)c1ccc(N2CCN(C(=O)c3cc(-c4ccccc4Cl)nc4ccccc34)CC2)cc1` [Compound D14, 4-(4-(2-(2-Chlorophenyl)Quinoline-4-Carbonyl)Piperazin-1-yl)-N-Hydroxybenzamide]: 235 to 236.4 °C, 49.74 ± 2.06% and 48.3 ± 1.02%.
Compound `O=C(NO)c1ccc(N2CCN(C(=O)c3cc(-c4cccc(F)c4)nc4ccccc34)CC2)cc1` [Compound D15, 4-(4-(2-(3-Fluorophenyl)Quinoline-4-Carbonyl)Piperazin-1-yl)-N-Hydroxybenzamide] gave a melting point of 225 to 226.3 °C. In series [1], the “HDACs percentage inhibitory rate (PIR)” value was found to be 58.80 ± 2.95%. The inhibition at 2 µM in the series with K562 cells is 26.2 ± 0.62%.
The matching figures for `CN(C)c1ccc(-c2cc(C(=O)N3CCN(c4ccc(C(=O)NO)cc4)CC3)c3ccccc3n2)cc1` [Compound D18, 4-(4-(2-(4-(Dimethylamino)Phenyl)Quinoline-4-Carbonyl)Piperazin-1-yl)-N-Hydroxybenzamide]: 200.6 to 201.2 °C, 48.37 ± 0.35% and 48.3 ± 0.31%.
The like results for `O=C(NO)c1ccc(N2CCN(C(=O)c3cc(-c4ccc(NC(=O)c5ccccc5)cc4)nc4ccccc34)CC2)cc1` [Compound D19, 4-(4-(2-(4-Benzamidophenyl)Quinoline-4-Carbonyl)Piperazin-1-yl)-N-Hydroxybenzamide] were, in that order, 173.9 to 174.8 °C, 45.31 ± 0.68% and 59.19 ± 0.35%.
Take `O=C(NO)c1ccc(N2CCN(C(=O)c3cc(-c4ccc(NC(=O)c5ccc(F)cc5)cc4)nc4ccccc34)CC2)cc1` [Compound D20, 4-Fluoro-N-(4-(4-(4-(4-(Hydroxycarbamoyl)Phenyl)Piperazine-1-Carbonyl)Quinolin-2-yl)Phenyl)Benzamide]: the melting point fell in the range of 178.3 to 180.3 °C. The “HDACs percentage inhibitory rate (PIR)” value in series [1] is reported as 48.46 ± 0.68%. The inhibition at 2 µM in the series on K562 cells worked out at 45.9 ± 1.34%.
The like results for `O=C(NO)c1ccc(N2CCN(C(=O)c3cc(-c4ccc(NC(=O)c5cccc(Br)c5)cc4)nc4ccccc34)CC2)cc1` [Compound D21, 3-Bromo-N-(4-(4-(4-(4-(Hydroxycarbamoyl)Phenyl)Piperazine-1-Carbonyl)Quinolin-2-yl)Phenyl)Benzamide] were, in that order, 170.5 to 170.8 °C, 50.26 ± 1.41% and 47.6 ± 0.92%.
Take `O=C(NO)c1ccc(N2CCN(C(=O)c3cc(-c4ccc(NC(=O)c5ccccc5F)cc4)nc4ccccc34)CC2)cc1` [Compound D22, 2-Fluoro-N-(4-(4-(4-(4-(Hydroxycarbamoyl)Phenyl)Piperazine-1-Carbonyl)Quinolin-2-yl)Phenyl)Benzamide]: the melting point lay within 163.5 to 164.2 °C. Further, the “HDACs percentage inhibitory rate (PIR)” value in series [1] is 56.86 ± 1.79%. The inhibition at 2 µM in the series on K562 cells came out at 65.1 ± 1.34%.
The like results for `O=C(NO)c1ccc(N2CCN(C(=O)c3cc(-c4ccc(NC(=O)c5ccccc5Cl)cc4)nc4ccccc34)CC2)cc1` [Compound D23, 2-Chloro-N-(4-(4-(4-(4-(Hydroxycarbamoyl)Phenyl)Piperazine-1-Carbonyl)Quinolin-2-yl)Phenyl)Benzamide] were, in that order, 167.2 to 167.8 °C, 62.91 ± 2.26% and 61.92 ± 0.42%.
Regarding “N-Hydroxy-4-(4-(2-(o-Tolyl)Quinoline-4-Carbonyl)Piperazin-1-yl)Benzamide [Compound D16]”, in series [1], the “HDACs percentage inhibitory rate (PIR)” value was determined as 49.04 ± 31.22%. The “K562 percentage inhibitory rate” value in the series on K562 cells turned out to be 15.26 ± 0.33%.
